Data as given in article PMC12259978 (Scientific Reports, 2025).

How the values were obtained:
tyrosinase [1] = target: T1, tyrosinase (Agaricus bisporus, UniProt C7FF04); experiment: Tyrosinase inhibitory assay; format: biochemical; details: read-out: % inhibition of tyrosinase
tyrosinase [2] = target: T1, tyrosinase; experiment: Enzyme kinetic study; format: biochemical

T1 sequence (C7FF04 whole entry): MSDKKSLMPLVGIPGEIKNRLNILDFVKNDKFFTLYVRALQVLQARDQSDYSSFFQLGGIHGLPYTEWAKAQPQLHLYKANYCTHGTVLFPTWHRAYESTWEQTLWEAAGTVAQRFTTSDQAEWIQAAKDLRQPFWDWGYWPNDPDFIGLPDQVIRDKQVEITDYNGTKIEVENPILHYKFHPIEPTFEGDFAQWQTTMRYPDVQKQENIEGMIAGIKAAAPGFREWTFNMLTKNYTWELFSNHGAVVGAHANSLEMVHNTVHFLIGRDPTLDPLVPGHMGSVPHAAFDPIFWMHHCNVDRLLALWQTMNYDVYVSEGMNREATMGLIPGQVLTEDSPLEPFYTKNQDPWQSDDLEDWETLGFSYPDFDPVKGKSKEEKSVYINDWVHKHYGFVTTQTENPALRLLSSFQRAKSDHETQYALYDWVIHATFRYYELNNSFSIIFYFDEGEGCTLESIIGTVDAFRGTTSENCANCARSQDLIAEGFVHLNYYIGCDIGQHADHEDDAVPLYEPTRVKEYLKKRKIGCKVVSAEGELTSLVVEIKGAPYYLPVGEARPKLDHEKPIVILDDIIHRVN

Cc1ccc(NC(=O)CSc2nc3ccccc3cc2C=Nn2c(S)nnc2-c2ccccc2)cc1 [12g, 2-((3-(((3-Mercapto-5-phenyl-4H-1,2,4-triazol-4-yl)imino)methyl)quinolin-2-yl)thio)-N-(p-tolyl)acetamide]
inhibition at 50 µM (tyrosinase [1]): 51.4%

O=C(CSc1nc2ccccc2cc1C=Nn1c(S)nnc1-c1ccccc1)Nc1ccc(Cl)cc1Cl [12e, N-(2,4-dichlorophenyl)-2-((3-(((3-mercapto-5-phenyl-4H-1,2,4-triazol-4-yl)imino)methyl)quinolin-2-yl)thio)acetamide]
inhibition at 50 µM (tyrosinase [1]): 48.3%

O=C(CSc1nc2ccccc2cc1C=Nn1c(S)nnc1-c1ccccc1)Nc1ccc(Cl)cc1 [12d, N-(4-chlorophenyl)-2-((3-(((3-mercapto-5-phenyl-4H-1,2,4-triazol-4-yl)imino)methyl)quinolin-2-yl)thio)acetamide]
inhibition at 50 µM (tyrosinase [1]): 66%

Cc1cccc(NC(=O)CSc2nc3ccccc3cc2C=Nn2c(S)nnc2-c2ccccc2)c1C [12i, N-(2,3-dimethylphenyl)-2-((3-(((3-mercapto-5-phenyl-4H-1,2,4-triazol-4-yl)imino)methyl)quinolin-2-yl)thio)acetamide]
inhibition at 50 µM (tyrosinase [1]): 43.8%

COc1ccc(NC(=O)CSc2nc3ccccc3cc2C=Nn2c(S)nnc2-c2ccccc2)cc1 [12f, 2-((3-(((3-Mercapto-5-phenyl-4H-1,2,4-triazol-4-yl)imino)methyl)quinolin-2-yl)thio)-N-(4-methoxyphenyl)acetamide]
inhibition at 50 µM (tyrosinase [1]): 40.9%

Cc1ccccc1NC(=O)CSc1nc2ccccc2cc1C=Nn1c(S)nnc1-c1ccccc1 [12h, 2-((3-(((3-Mercapto-5-phenyl-4H-1,2,4-triazol-4-yl)imino)methyl)quinolin-2-yl)thio)-N-(o-tolyl)acetamide]
inhibition at 50 µM (tyrosinase [1]): 46%

O=C(CSc1nc2ccccc2cc1C=Nn1c(S)nnc1-c1ccccc1)Nc1ccccc1Cl [12b, N-(2-chlorophenyl)-2-((3-(((3-mercapto-5-phenyl-4H-1,2,4-triazol-4-yl)imino)methyl)quinolin-2-yl)thio)acetamide]
inhibition at 50 µM (tyrosinase [1]): 55.7%

O=C(CSc1nc2ccccc2cc1C=Nn1c(S)nnc1-c1ccccc1)Nc1ccccc1 [12a, 2-((3-(((3-mercapto-5-phenyl-4H-1,2,4-triazol-4-yl)imino)methyl)quinolin-2-yl)thio)-N-phenylacetamide]
inhibition at 50 µM (tyrosinase [1]): 32.2%

O=C(CSc1nc2ccccc2cc1C=Nn1c(S)nnc1-c1ccccc1)NCCc1ccccc1 [12j, 2-((3-(((3-Mercapto-5-phenyl-4H-1,2,4-triazol-4-yl)imino)methyl)quinolin-2-yl)thio)-N-phenethylacetamide]
Ki (tyrosinase [2]): 9.06 µM
type of inhibition (tyrosinase [2]; Lineweaver-Burk plot, Vmax unchanged, Km increased): competitive inhibitor
inhibition at 50 µM (tyrosinase [1]): 86.6%
